Test results as given in US10729655B2, “Orally disintegrating tablets” (AstraZeneca AB, priority 2016, dated 2020).

Columns and labels:
[1] = Relative bioavailability study (clinical study A), plasma pharmacokinetics of ticagrelor and AR-C124910XX; format: in vivo, healthy male and female subjects
Procedure: A relative bioavailability study (hereafter referred to as clinical study A) compared the orodispersible tablet of Example 7, administered with water (after oral dispersion) and without water, to a film-coated tablet containing 90 mg of ticagrelor. In clinical study A the orodispersible tablet was also suspended in water and administered through a nasogastric tube and compared to the film-coated tablet.
This study was an open-label, randomised, four-period, four-treatment, crossover study in healthy male and female of non-childbearing potential subjects, performed at a single study centre. The study was comprised of: • A screening period of maximum 21 days; • Four treatment periods during which subjects were resident prior to the evening meal the night before dosing with ticagrelor (Day −1) until at least 48 hours after dosing; discharged on the morning of Day 3; and • A final visit within 5 to 10 days after the last administration of ticagrelor.
Subjects received single doses of ticagrelor in 4 different ways under fasted conditions. Following an overnight fast of at least 10 hours, each subject received a single dose of each treatment on 4 occasions, respectively.
The PK parameters were assessed for ticagrelor (parent) and its active metabolite AR-C124910XX based on plasma concentrations.
Pharmacokinetic parameters were summarised for each treatment using descriptive statistics. Where possible, the following descriptive statistics were presented: n, geometric mean, geometric CV, arithmetic mean, arithmetic standard deviation, median, minimum and maximum. For tmax, only n, median, minimum and maximum were presented.
Bioavailability comparison of treatments A, B and C (test product) and D (reference product) were assessed on the ratio of log-transformed Cmax, AUC0-t, and AUC of both ticagrelor and AR-C124910XX using a 2-sided 90% confidence interval (CI) approach based on an analysis of variance (ANOVA) model including fixed effects for treatment, sequence, period and subject within sequence.
All PK parameters were log-transformed prior to analysis. The estimated treatment differences and the 90% CIs on the log scale were back transformed to obtain the geometric mean ratios for each pair of treatments.

[2] = Focused Beam Reflectance Measurement (FBRM) of granules in dissolution bath; format: physicochemical; conditions: granules stored at 40° C. and 75% RH for one month
Procedure: Focused Beam Reflectance Measurement (FBRM) analyses were conducted in dissolution studies. The FBRM technique involves the insertion of a probe directly into a process stream, at an angle, to ensure particles can flow easily across the probe window where the measurement takes place. A laser beam is launched down the probe tube through a set of optics and focused to a tight beam spot at the sapphire window. The optics rotate at a fixed speed (typically 2 m/s) resulting in the beam spot rapidly scanning across particles as they flow past the window. As the focused beam scans across the particle system, individual particles or particle structures will backscatter the laser light to the detector. These distinct pulses of backscattered light are detected, counted, and the duration of each pulse is multiplied by the scan speed to calculate the distance across each particle. This distance is defined as the chord length, a fundamental measurement of the particle related to the particle size, and a precise and highly sensitive chord length distribution can be reported in real time, thus tracking how particle size and count change over time. […]
The integration time was set to 5 seconds. […] From that dataset kinetic curves were calculated showing different size fractions and the fraction 40-100 μm was the fraction selected for comparison. […]

[3] = Mercury intrusion porosimetry (pore volume, pore size distribution); format: physicochemical
Procedure: The pore volume and the pore size distribution were determined using mercury intrusion porosimetry (Micromeritics AutoPore III 9410). The determination was performed within the pore diameter interval 115 μm≥ϕ≥0.0030 μm (30 Å). The surface tension and the contact angle of mercury are set to 485 mN/m and 130°, respectively. Blank correction has been used to compensate for compaction of parts of the penetrometer system at high pressures. The test materials used were: ticagrelor granules (“3606”), final tablet blend (“3606 FB”); F-melt type C granules (“F-melt”); Ticagrelor particles from supplier 1 (“AZ”); Ticagrelor particles from supplier 2 (“DSM”); Ticagrelor particles from supplier 3 (“Omnichem”).
One of the penetrometers used for analysis of the granules was used for the reference test. The result gave a cumulative pore volume of 0.55 cm^3/g and a median pore diameter (based on volume) of 73 Å. The reference values are 0.56±0.02 cm^3/g and 75±5 Å, respectively.

[4] = Powder flow indices (Carr's index, Hausner ratio); format: physicochemical; conditions: ticagrelor powders
From the text: Ticagrelor powders are characterised by poor flowability, for example as indicated by a large Hausner ratio (tap density/bulk density ˜1.8-2.0).

[5] = plasma, single 90 mg ticagrelor dose, fasted, range across treatments
[6] = pores <8, post-storage 1 month at 40° C./75% RH
[7] = pores >8, post-storage 1 month at 40° C./75% RH

Structure (SMILES)	median tmax ([1]; plasma, single 90 mg ticagrelor dose, fasted, across OD (with water, without water, NG tube) and IR tablets) [h]	terminal mean t1/2λz [1, 5] [h]	Plasma metabolite AUC as % of plasma ticagrelor AUC ([1]; range across treatments)	Plasma metabolite Cmax as % of plasma ticagrelor Cmax ([1]; range across treatments)	Particle dissolution by FBRM after storage compared with non-stored granules [2]	Median pore diameter (vol) [3, 6] [μm]	Pore area [3, 6] [m^2/g]	Pore volume [3, 6] [cm^3/g]	Median pore diameter (vol) ([3]; pores <8, pre-storage) [μm]	Pore area ([3]; pores <8, pre-storage) [m^2/g]	Pore volume ([3]; pores <8, pre-storage) [cm^3/g]	Median pore diameter (vol) [3, 7] [μm]	Pore area [3, 7] [m^2/g]	Pore volume [3, 7] [cm^3/g]	Median pore diameter (vol) ([3]; pores >8, pre-storage) [μm]	Pore area ([3]; pores >8, pre-storage) [m^2/g]	Pore volume ([3]; pores >8, pre-storage) [cm^3/g]	Tmax ([1]; both sexes, human, oral, plasma, single 90 mg ticagrelor dose, fasted, across OD (with water, without water, NG tube) and IR tablets, read-out: median tmax) [h]	Hausner ratio (tap density/bulk density) [4]
CCCSc1nc(N[C@@H]2C[C@H]2c2ccc(F)c(F)c2)c2nnn([C@@H]3C[C@H](O)[C@@H](O)[C@H]3O)c2n1 [AR-C124910XX]	2 to 3	9.35 to 9.48	38.2-40.5%	27.1-30.0%															
CCCSc1nc(N[C@@H]2C[C@H]2c2ccc(F)c(F)c2)c2nnn([C@@H]3C[C@H](OCCO)[C@@H](O)[C@H]3O)c2n1 [AZ]					slower particle dissolution	1.1	14	0.23	0.9	14	0.23	27	0.1	0.69	24	0.1	0.62		
CCCSc1nc(N[C@@H]2C[C@H]2c2ccc(F)c(F)c2)c2nnn([C@@H]3C[C@H](OCCO)[C@@H](O)[C@H]3O)c2n1 [DSM]						1.5	12	0.29	1.2	13	0.28	20	0.1	0.64	19	0.1	0.59		

Further lines, results first:

median tmax ([1]; plasma, single 90 mg ticagrelor dose, fasted, across OD (with water, without water, NG tube) and IR tablets) [h]	terminal mean t1/2λz [1, 5] [h]	Plasma metabolite AUC as % of plasma ticagrelor AUC ([1]; range across treatments)	Plasma metabolite Cmax as % of plasma ticagrelor Cmax ([1]; range across treatments)	Particle dissolution by FBRM after storage compared with non-stored granules [2]	Median pore diameter (vol) [3, 6] [μm]	Pore area [3, 6] [m^2/g]	Pore volume [3, 6] [cm^3/g]	Median pore diameter (vol) ([3]; pores <8, pre-storage) [μm]	Pore area ([3]; pores <8, pre-storage) [m^2/g]	Pore volume ([3]; pores <8, pre-storage) [cm^3/g]	Median pore diameter (vol) [3, 7] [μm]	Pore area [3, 7] [m^2/g]	Pore volume [3, 7] [cm^3/g]	Median pore diameter (vol) ([3]; pores >8, pre-storage) [μm]	Pore area ([3]; pores >8, pre-storage) [m^2/g]	Pore volume ([3]; pores >8, pre-storage) [cm^3/g]	Tmax ([1]; both sexes, human, oral, plasma, single 90 mg ticagrelor dose, fasted, across OD (with water, without water, NG tube) and IR tablets, read-out: median tmax) [h]	Hausner ratio (tap density/bulk density) [4]	Structure (SMILES)
					0.5	9	0.18	0.5	12	0.28	36	<0.1	0.61	35	<0.1	0.53			CCCSc1nc(N[C@@H]2C[C@H]2c2ccc(F)c(F)c2)c2nnn([C@@H]3C[C@H](OCCO)[C@@H](O)[C@H]3O)c2n1 [Omnichem]
	7.99 to 8.21																~2	1.8-2.0	CCCSc1nc(N[C@@H]2C[C@H]2c2ccc(F)c(F)c2)c2nnn([C@@H]3C[C@H](OCCO)[C@@H](O)[C@H]3O)c2n1 [ticagrelor, (1S,2S,3R,5S)-3-[7-{[(1R,2S)-2-(3,4-difluorophenyl)cyclopropyl]amino}-5-(propylthio)-3H[1,2,3]-triazolo[4,5-d]pyrimidin-3-yl]-5-(2-hydroxyethoxy)cyclopentane-1,2-diol]
